Values after ≈ are worked out from the molar mass of the structure shown. Read-outs that look alike come from different tables or passages of the source.
Key:
MDA-MB-231 = assay: MTT cell viability, MDA-MB-231; type: cell-based, Human; conditions: Homo sapiens, MDA-MB-231; MTT test; 72 h of treatment (Figure 3); read-out: IC50 Value ± SD, MDA-MB-231
Protocol: (§1) These cell lines were selected to represent distinct sub-types of breast cancer for extensive investigation. […] The medium was added with 10% heat-inactivated fetal calf serum (FCS) to supply vital growth hormones and nutrients necessary for cell proliferation. Additionally, 1% penicillin streptomycin was administered to avoid bacterial contamination, ensuring the sterility and integrity of the cell cultures. The cell cultures were maintained at 37 °C in a humidified environment containing 5% CO2. This controlled environment mimics physiological conditions in the human body, supporting optimal cell development and function. The humidified atmosphere prevents medium evaporation, while the 5% CO2 concentration maintains optimal pH values in the culture medium. These specialized circumstances and methods ensure that the breast cancer cell lines remain healthy and viable for experimental procedures, delivering dependable and reproducible results for research projects. The standard protocols followed for cultivating these cells are crucial for generating consistent and reliable data. Using well-characterized cell lines from a credible source like ATCC ensures the re-liability and comparability of the experimental outcomes.
(§2) This approach determines cell viability based on the ability of living cells to decrease MTT to a purple, water-insoluble formazan product. Cells were planted in 96-well plates at a density of 1 × 10^4 cells per well in 100 μL of complete culture media, which provides all necessary nutrients for cell growth. […] The cells were then treated with the compounds for 24, 48, and 72 h to determine the effect on cell viability over varied time intervals. Following each incubation time, 20 μL of MTT solution (at a concentration of 5 mg/mL in PBS) were applied to each well. The plates were further incubated for 4 h at 37 °C, during which time live cells decrease the MTT to formazan, creating purple crystals. At the end of the incubation, the medium containing the MTT was carefully aspirated, leaving only the formazan crystals in the bottom of the wells. […]

MDA-MB-436 = assay: MTT cell viability, MDA-MB-436; type: cell-based, Human; conditions: Homo sapiens, MDA-MB-436; MTT test; 72 h of treatment (Figure 3); read-out: IC50 Value ± SD, MDA-MB-436
Protocol: as §1, §2

MCF-7 cells = conditions: ref Seresht et al. (2019) [79], cited from earlier work
[1] = Oxygen radical absorbance capacity (ORAC); conditions: Trolox equivalents
Protocol: The ORAC (Oxygen Radical Absorbance Capacity) test was carried out using a modified version of the procedure reported by Huang et al.. This test examines the antioxidant capacity of compounds by examining their ability to neutralize oxygen radicals. The method was carried out utilizing a 96-well microplate format. First, 150 µL of fluorescein solution, produced as 8 × 10^−8 M fluorescein in 0.075 M phosphate buffer (pH 7.4), were dispersed to each well. Fluorescein is a fluorescent probe whose fluorescence lowers when it reacts with radicals. Next, 25 µL of the substance or mixture to be evaluated was added to the corresponding wells. Wells containing 25 µL of phosphate buffer served as blanks, and wells containing 25 µL of Trolox solution (from 10 to 100 µm) were utilized as standards. Control wells containing 50 µL phosphate buffer without any radicals were also added to provide a baseline. The reaction was initiated by adding 25 µL of a freshly produced solution of AAPH (2,2′-azobis(2-methylpropionamidine) dihydrochloride) at a concentration of 165.94 mM in phosphate buffer to each well, except for the control wells, at a temperature of 37 °C. AAPH creates peroxyl radicals that induce oxidative stress in the fluorescein solution, simulating free-radical attack. […] The fluorescence in-tensity of the mixture was then monitored at regular intervals for 120 min.

Question: Which results are given for Cc1ccc(C(C)C)c(O)c1 [Thymol, 2-isopropyl-5-methylphenol]?
Answer: IC50 (MDA-MB-231): 8.22 ± 0.94 µg/mL (≈ 54.7 µM); IC50 (MDA-MB-436): 15.8 ± 1.69 µg/mL (≈ 105 µM); IC50 on MCF-7 cells (MCF-7 cells; 48 h): 54 µg/mL (≈ 359 µM); IC50 on MCF-7 cells (MCF-7 cells; 72 h): 62 µg/mL (≈ 413 µM); Oxygen Radical Absorbance Capacity [1]: 2.341 ± 0.009 mmol TE/g

Reference: article PMC11355195 (Life, 2024)
